Test results: publication PMC6297231 (Nature Communications, 2018)
pEC50: −log10 of the molar value. Like-named read-outs stand apart in the source and are kept apart here.

Legend:
OCILY3 = assay: Cell viability assay; format: cell-based; settings: Homo sapiens, OCI-Ly3, 24 h; OCILY3 (NHL); read-out: AZD5991 24h GI50
Protocol: (§1) Cells were plated at 3000 cells/well in 384-well white plates in corresponding cell growth media. […] Caspase-3/7 activation was subsequently determined using a Caspase-Glo 3/7 Reagent (Promega) and viability was assayed using the CellTiter-Glo Reagent (Promega) as described in manufacturer’s instructions. Dose–response curves for caspase-3/7 activation and viability were plotted and analyzed (including EC50 and GI50 determination) using GraphPad Prism.

REC1 = assay: Cell viability assay; format: cell-based; settings: Homo sapiens, 24 h; REC1 (NHL); read-out: AZD5991 24h GI50
Protocol: as §1

HMCB = assay: Cell viability assay; format: cell-based; settings: Homo sapiens, 24 h; HMCB (Skin); read-out: AZD5991 24h GI50
Protocol: as §1

KG1 = assay: Cell viability assay; format: cell-based; settings: Homo sapiens, KG-1, 24 h; KG1 (AML); read-out: AZD5991 24h GI50
Protocol: as §1

KMS12PE = assay: Cell viability assay; format: cell-based; settings: Homo sapiens, KMS-12-PE, 24 h; KMS12PE (MM); read-out: AZD5991 24h GI50
Protocol: as §1

MOLP8 = assay: Caspase-3/7 activation assay; format: cell-based; settings: Homo sapiens
Protocol: as §1

MALME3M = assay: Cell viability assay; format: cell-based; settings: Homo sapiens, Malme-3M, 24 h; MALME3M (Skin); read-out: AZD5991 24h GI50
Protocol: as §1

RCPIWM1 = assay: Cell viability assay; format: cell-based; settings: 24 h; RCPIWM1 (NHL); read-out: AZD5991 24h GI50
Protocol: as §1

MOLM13 = assay: Cell viability assay; format: cell-based; settings: Homo sapiens, MOLM-13, 24 h; MOLM13 (AML); read-out: AZD5991 24h GI50
Protocol: as §1

SKOV3 = assay: Cell viability assay; format: cell-based; settings: Homo sapiens, SK-OV-3, 24 h; SKOV3 (Others); read-out: AZD5991 24h GI50
Protocol: as §1

KMS34 = assay: Cell viability assay; format: cell-based; settings: KMS-34, 24 h; KMS34 (MM); read-out: AZD5991 24h GI50
Protocol: as §1

ULA = assay: Cell viability assay; format: cell-based; settings: 24 h; ULA (NHL); read-out: AZD5991 24h GI50
Protocol: as §1

NCI-H929 = assay: Cell viability assay; format: cell-based; settings: Homo sapiens, 24 h; NCI-H929 (MM); read-out: AZD5991 24h GI50
Protocol: as §1

NB4 = assay: Caspase-3/7 activation assay; format: cell-based; settings: Homo sapiens, NB-4, 6 h
Protocol: as §1

OVCAR3 = assay: Cell viability assay; format: cell-based; settings: Homo sapiens, OVCAR-3, 24 h; OVCAR3 (Others); read-out: AZD5991 24h GI50
Protocol: as §1

A101D = assay: Cell viability assay; format: cell-based; settings: Homo sapiens, 24 h; A101D (Skin); read-out: AZD5991 24h GI50
Protocol: as §1

H23 = assay: Caspase-3/7 activation assay; format: cell-based; settings: Homo sapiens
Protocol: as §1

MOLP-8 cells = assay: Kinetics of apoptosis and cell death markers; format: cell-based
Protocol: Data presented in Fig. 4b was calculated as follows:4 TMRE:(TMREnegativesample-TMREnegativeDMSO)∕(TMREnegative500nMAZD5991@24h-TMREnegativeDMSO)×100 5 Annexin V : (Annexin V positive sample) - Annexin positive DMSO∕(Annexin positive 500nM AZD5991@24h) - Annexin positive DMSO × 100 6 7AAD : (7AAD positive sample) - 7AAD positive 500nM AZD5991@0.5h∕(7AAD positive 500nM AZD5991@16h) - 7AAD positive 500nM AZD5991@0.5h × 100

HEL92.1.7 = assay: Caspase-3/7 activation assay; format: cell-based; settings: Homo sapiens, HEL 92.1.7, 6 h
Protocol: as §1

TMD8 = assay: Cell viability assay; format: cell-based; settings: Homo sapiens, 24 h; TMD8 (NHL); read-out: AZD5991 24h GI50
Protocol: as §1

MOLP-8 tumors = assay: MOLP-8 subcutaneous xenograft efficacy; format: in vivo
Protocol: Female C.B.-17 SCID mice and female nude rats were purchased from Charles River Laboratories. […]. All xenograft studies were conducted at our Association for the Assessment and Accreditation of Laboratory Animal Care accredited facility in Waltham, MA in accordance with ethical regulations described in the guidelines established by the internal Institutional Animal Care and Use Committee. […]. In mice, drugs were dosed intravenously in a volume of 5 mL kg^-1 except for venetoclax that was dosed orally in a volume of 10 mL kg^-1. […]. Ten million MV4-11 cells were injected subcutaneously in the right flank of rats in a volume of 0.1 mL. Tumor volumes (measured by caliper), animal body weight, and tumor condition were recorded twice weekly for the duration of the study. The tumor volume was calculated using the formula: length (mm) × width (mm)^2[…]. For efficacy studies, growth inhibition from the start of treatment was assessed by comparison of the differences in tumor volume between control and treated groups. Statistical significance was evaluated using non-parametric, unpaired, two-tailed t-test. For efficacy studies, animals were randomized based on tumor volumes using stratified sampling, and enrolled into control and treatment groups. Dosing began when mean tumor size reached ~230 mm^3 in mice and 900 mm^3 in rats. Mice were euthanized once tumor size reached 2000 mm^3. Mice were excluded from the study upon body weight loss > 10% of the body weight at the initiation of the study. For pharmacokinetic analysis, plasma samples were precipitated and diluted with acetonitrile containing internal standard and analyzed by LC–MS/MS versus a calibration curve of known concentrations.

[1] = single i.v. dose 60 mg kg^−1, ten days after treatment

In the case of `Cc1c2c(nn1C)CSCc1cc(n(C)n1)CSc1cc(c3ccccc3c1)OCCCc1c(C(=O)O)n(C)c3c-2c(Cl)ccc13` (atropisomer, axis not shown; (Ra)) [(Ra)-7], the GI50 (OCILY3) was 6190 nM, the GI50 (REC1) was 728 nM and the GI50 (HMCB) was 3000 nM. It also gave a GI50 (KG1) of 291 nM, a GI50 (KMS12PE) of 329 nM and a pEC50 (MOLP8; MOLP-8, 6 h, read-out: AZD5991 6h EC50, MOLP8 (MM), caspase 3/7 activation) of 7.24. It also gave a pEC50 (MOLP8; MOLP-8, MOLP-8 cells, 0% serum, read-out: caspase-inducing activity EC50) of 9.00, a pEC50 (MOLP8; MOLP-8, MOLP-8 cells, 2% serum, read-out: caspase-inducing activity EC50) of 8.10 and a pEC50 (MOLP8; MOLP-8, caspase activation, Mcl-1-dependent cell line, read-out: MOLP-8, EC50) of 7.48. The EC50 (MOLP8; MOLP-8, mean of log transformed data, read-out: MOLP-8 caspase pEC50 (converted)) was 33.1 nM, the GI50 (MALME3M) was 19500 nM and the GI50 (RCPIWM1) was 20 nM. It also gave a GI50 (MOLM13) of 42 nM, a GI50 (SKOV3) of 144 nM and a GI50 (KMS34) of 503 nM. It also gave a GI50 (ULA) of 91 nM, a GI50 (NCI-H929) of 53 nM and a pEC50 (NB4; read-out: 6h caspase EC50, NB4, single agent) of 6.70. The pEC50 (NB4; read-out: AZD5991 6h EC50, NB4 (AML), caspase 3/7 activation) was 6.46, the GI50 (OVCAR3) was over 30000 nM and the GI50 (A101D) was 175 nM. It also gave a pEC50 (H23; NCI-H23, 6 h, read-out: AZD5991 6h EC50, H23 (Lung), caspase 3/7 activation) of 6.46, a pEC50 (H23; NCI-H23, caspase activation, Mcl-1-dependent cell line, read-out: NCI-H23, EC50) of 6.72 and an EC50 (H23; NCI-H23, mean of log transformed data, read-out: NCI-H23 caspase pEC50 (converted)) of 195 nM. For the same molecule, the “time to loss of ATP and disruption of the cell membrane” value (MOLP-8 cells) was “less than 24 h”, the “time to maximum increase in MOMP, caspase-3/7 activation and phosphatidyl-serine exposure” value (MOLP-8 cells; MOLP-8 cells, 500 nM) was “less than 2 h” and the pEC50 (HEL92.1.7; read-out: 6h caspase EC50, HEL9217, single agent) was under 6.48. The pEC50 (HEL92.1.7; read-out: AZD5991 6h EC50, HEL92.1.7 (AML), caspase 3/7 activation) was 6.25, the GI50 (TMD8) was 535 nM and the “tolerability, body weight” value (MOLP-8 tumors; all dose levels, 10–100 mg kg^−1 single i.v. dose) was “no significant body weight loss”. For the same molecule, the “mice with tumor regression after second dose” value (MOLP-8 tumors; single dose 36 days after the first dose, 100 mg kg^−1 i.v., regrown tumors) was 4 out of 4, the “tumor growth inhibition (TGI)” value (MOLP-8 tumors; single i.v. dose 10 mg kg^−1, ten days after treatment) was 52% and the “tumor growth inhibition (TGI)” value (MOLP-8 tumors; single i.v. dose 30 mg kg^−1, ten days after treatment) was 93%. For the same molecule, the “mice with no detectable tumors” value (MOLP-8 tumors; [1]) was 6 out of 7, the “tumor regression (TR)” value (MOLP-8 tumors; [1]) was 99% and the “mice with complete TR” value (MOLP-8 tumors; single i.v. dose 100 mg kg^−1, ten days after treatment) was 7 out of 7.
